Laboratory results from patent US20250154212A1, “METHOD OF DISRUPTING MEMORY AND LIPOPEPTIDE FOR USE IN SUCH METHOD” (The Research Foundation for The State University of New York, priority 2023, published 2025).
Where no end group is shown, it is not given here. The star is where a group is joined. Myristoyl = CCCCCCCCCCCCCC(=O)*

Target: T1, KIBRA-PKCι/λ interaction (Homo sapiens, UniProt P41743)
T1 construct: expressed in transfected cells; host or cells: HEK293T
T1 sequence (P41743 10-596): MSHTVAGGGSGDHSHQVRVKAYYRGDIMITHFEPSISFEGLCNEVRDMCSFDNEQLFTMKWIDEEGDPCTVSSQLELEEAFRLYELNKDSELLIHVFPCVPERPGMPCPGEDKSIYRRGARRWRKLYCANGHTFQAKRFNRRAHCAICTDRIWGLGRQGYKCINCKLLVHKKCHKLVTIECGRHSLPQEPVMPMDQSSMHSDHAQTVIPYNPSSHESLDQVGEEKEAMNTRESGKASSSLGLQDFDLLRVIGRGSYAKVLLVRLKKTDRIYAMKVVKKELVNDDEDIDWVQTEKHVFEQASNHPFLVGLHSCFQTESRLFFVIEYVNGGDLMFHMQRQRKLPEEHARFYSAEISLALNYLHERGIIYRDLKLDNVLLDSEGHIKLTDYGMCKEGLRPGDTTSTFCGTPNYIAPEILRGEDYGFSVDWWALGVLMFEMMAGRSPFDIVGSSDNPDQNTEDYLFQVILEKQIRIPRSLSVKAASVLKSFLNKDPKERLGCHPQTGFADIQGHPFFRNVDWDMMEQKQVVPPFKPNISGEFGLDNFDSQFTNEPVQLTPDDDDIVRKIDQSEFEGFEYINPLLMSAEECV
Assay: BiFC assay of KIBRA-PKCι/λ interaction in HEK293T cells
Assay type: cell-based
Conditions: 10 μM
Protocol: KIBRA-PKMζ BiFC was performed as previously described (28), using pVen1-FLAG-KIBRA and pVen2-HA-PKMζ, in which PKMζ was cloned between EcoR1 and BamH1 sites. The constructs pVen1 and pVen2 encode the N-terminus (amino acids 1-154) and C-terminus (amino acids 155-238) of the Venus protein, respectively, and the Venus fragments were on the N-terminal of the fusion proteins. pVen2-HA-PKMζ[PKCι/λ-P291Q;F297S] was generated by site-directed mutagenesis using forward-cctggagAagcAAatceggatcccccggtCcctgtccgte and reverse-gacggacaggGaccgggggatccggatTTgctTctccagg primers and the QuickChange II XL Site-Directed Mutagenesis Kit (Agilent Technologies), following manufacturer's instructions. Additional pVen2-HA-PKC isoforms and pVen2-HA-CaMKIIα in the pVen2-HA vector were generated by cloning the N-terminus of the coding sequence of each kinase (table S1) to obtain an in-frame fusion at the C-terminus of the pVen2-HA. Human versions of KIBRA and kinases were used, and all PCR amplified sequences and constructs were verified by DNA sequencing.
HEK293T cells were cultured in Dulbecco's Modified Eagle's Medium supplemented with 10% heat-inactivated fetal bovine serum, 100 U/ml penicillin, […] streptomycin, 2 mM glutamine, and 10 mM HEPES in a T75 tissue culture flask with canted neck and ventilated cap. Twenty-four hours prior to transfection, 1×10^5 HEK293T cells in 1 ml of media were plated on poly-D-lysine-treated coverslips in 24-well plates. One hour prior to transfection, 0.5 ml of the media was removed from each well, and ζ-stat or K-ZAP was added to the media that had been removed. The remaining media in each well was then discarded and substituted with the 0.5 ml pre-conditioned media containing ζ-stat or K-ZAP at designated concentrations. For transfection a total of 50 ng of DNA was delivered to each well using Lipofectamine 3000 (Invitrogen) and OptiMEM 1× reduced serum medium (Invitrogen) at a plasmid-to-plasmid ratio of 1:1. The amount of transfected DNA was optimized to produce relatively low concentrations of proteins during overexpression. […]

O=S(=O)(O)c1cc(O)c2c(S(=O)(=O)O)cc(S(=O)(=O)O)cc2c1 [ζ-stat, 1-naphthol-3,6,8-trisulphonic acid]
effect on KIBRA-PKCι/λ interaction (BiFC) (listed as C-stat): no measurable effect | effect on KIBRA-PKCι/λ interaction (BiFC) (listed as z-stat): has no effects

myr-N-FVRNSLERRSVRMKRPS-C (Myristoyl-FVRNSLERRSVRMKRPS) [K-ZAP]
effect on KIBRA-PKCι/λ interaction (BiFC): not measurably affected
